SMILES | melting point [°C]
C#CCc1c(C)nc2c(OCc3c(C)cccc3N)cccn12 | 144 to 146
CCCCCCCCCCOc1ccc(C(=O)O)cc1C(C)(C)C | 130 to 132
CC(C)[Si](C(C)C)(C(C)C)N1C=C2C=C(C=O)OCC3=C2C(=C1)CC3N(C)C (stereo unspecified) | 104 to 106
Cc1ccc(S(=O)(=O)N2C[C@H](O)C[C@H]2CO)cc1 | 127
CCOC(=O)c1c(C)nc(N2CCN(C)CC2)c([N+](=O)[O-])c1N | 73 to 75
CC1(C)C(=O)Nc2ccc(F)cc2N1C(=O)N1CCCC1 | 199 to 200
CCCOc1ccc(F)c2c1c(CCN(C)C)cn2CC | 49 to 50
Cc1ccnc(-c2c(C)noc2C)c1OC1SCC(O)C(O)C1O (stereo unspecified) | 70 to 100
CCCn1c(N)c(N=O)c(=O)n(CC2CCCCC2)c1=O | 225 to 226
O=C1c2ccccc2C(=O)N1c1cccnc1Cl | 156 to 157
CS(=O)(=O)N1C(=O)[C@H](C2CC2)[C@H]2[C@@H]1CCN2C(=O)OCc1ccccc1 (relative stereo) | 144 to 150
O=[N+]([O-])c1cccc(Nc2nc(Cl)nc(Cl)n2)c1 | 173
ON=C1CCC(O)(c2ccccc2Cc2ccccc2)CC1 (stereo unspecified) | 137 to 138
COCCNC(=O)c1cccc(-c2cccc3c(C)c(Cc4cc(F)cc(Cl)c4)sc23)c1 | 132 to 133
COC(=O)CCCCCCc1ncsc1C=O | 60 to 62
Nc1ccc(S(=O)C2=CCCCC2)cc1[N+](=O)[O-] (stereo unspecified) | 139 to 140
CC(C)(O)c1ccc(CN)cc1 | 62 to 64
N#Cc1ccccc1-c1ccc2cc(CBr)ccc2c1 | 171 to 172
N#Cc1cn(CO)cc1-c1ccccc1Cl | 94 to 97
CS(=O)(=O)c1ccc(-c2cnn(CC(F)(F)F)c(=O)c2NCCC#N)cc1 | 172 to 174
COc1cccc(S(=O)(=O)N(CC(N)=O)c2ccc(Cl)cc2Cc2ccccc2Cl)c1 | 65.7
Cc1cc(Br)c(Cl)c(C(=O)O)c1 | 160
COc1ccc(NC(=O)Nc2ccc(Cl)c(Cl)c2)cc1NC(=S)Nc1ccc(Cl)c([N+](=O)[O-])c1 | 162 to 170
CCCc1ncc(CN2CCN(c3ccccc3OC)CC2)c(N)n1 | 130
O=C(O)COc1cc2c(-c3ccccc3)csc2c(Cl)c1Cl | 152 to 154
N#Cc1ccc(NC2CCCCC2)c([N+](=O)[O-])c1 | 109

SMILES | melting point [°C]
Nc1nc2ccccc2c2c1nc1n2C(CCl)COC1 (stereo unspecified) | 230 to 232
Cc1cc(-c2cc(C(F)(F)F)n3ncc(-c4nc(-c5ccc(S(N)(=O)=O)s5)no4)c3n2)ccc1C(F)(F)F | 324
CCOC(=O)c1cc2cc(C)c(C(F)(F)F)cc2n1[C@H](C)CNC(=O)OC(C)(C)C | 103 to 105
COc1cccc(C(C[N+](=O)[O-])SC(=S)N(C)C)c1OC(C)=O (stereo unspecified) | 124 to 126
CCCc1c(SCCCSc2ccc(-c3nnn[nH]3)cc2)ccc(C(C)=O)c1O | 160 to 162
COc1ccc(C=O)cc1-n1nnnc1C | 157
Cc1cnccc1N1CCN(CC(=O)c2ccc(NS(C)(=O)=O)cc2)CC1 | 201 to 205
N#Cc1cc(-c2c(-c3ccccc3)nn3ccccc23)cn(CCC(=O)O)c1=O | 196 to 200
CC(C)c1ccc2c(c1)C(=O)N(C)C(c1ccc(C(C)(C)C)cc1)C2 (stereo unspecified) | 103 to 106
Cc1nc2c(C=Cc3ccccc3)cccn2c1N=O | 158 to 160
CCCCCCCCn1c(C2=CC(=O)c3ccccc3C2=O)ccc1C1=CC(=O)c2ccccc2C1=O | 75 to 76
CCOC(=O)c1cc(=O)c2c(OCC(O)COc3ccc(Cl)cc3Cl)cccc2o1 (stereo unspecified) | 98 to 100
COc1cc(OC)c2c(-c3ccc4c(c3)OCO4)c3c(cc2c1)C(=O)NC3 | 252 to 254
COc1ccc(N2CCN(Cc3n[nH]c4cc(Cl)ccc34)CC2)cc1 | 182 to 184
O=C(NCCCSc1cccnc1)c1cccs1 | 66 to 67
COc1cccc2c(=O)[nH]nc(C)c12 | 257 to 260
OC(c1ccc(Cl)cc1)(c1ccccc1F)C1CO1 (stereo unspecified) | 120 to 122
CCn1ncnc1COc1nn2c(-c3ccccc3F)nncc2c1-c1ccccc1F | 164
O=c1c2ccccc2sc2cc(OCC3CO3)cc(O)c12 (stereo unspecified) | 161
Cc1cccc(C2=CCN(CCCn3c(=O)[nH]c4cccc(C)c4c3=O)CC2)c1 | 155 to 160
CCc1[nH]n(C2CCCC2)c2nc(CN3CCc4ccccc4C3)nc(=O)c1-2 | 149 to 151
CC(C)(C)c1ccc(C=NOCCOc2ccc(C(=O)O)c(O)c2)cc1 | 161 to 163
Cc1cc(Br)c2nc(OCC(F)(F)F)ccc2c1 | 61 to 62
CC(=O)Oc1cccnc1-n1ccnc1SCc1ccccc1N1CCOCC1 | 89 to 91
O=C1c2ccccc2CN1c1ccc(CCN2CCN(c3nsc4ccccc34)CC2)cc1 | 176
CCOC(=O)C1=C(C)NC(N=C(C)N(C)C)=C(C(=O)OCC)C1c1ccccc1Cl (stereo unspecified) | 181

SMILES | melting point [°C]
COc1ccc(C(=O)c2cc3c(c(Cl)c2Cl)OC(C(=O)O)C3)cc1 (stereo unspecified) | 187
COc1cc2ccccc2cc1OC | 112 to 113
Cc1nccn1C(=O)Nc1ccccc1 | 205 to 207
CN(C)CC(=O)NN=Cc1c(-c2ccccc2)nn2ccccc12 | 172 to 173
CC(=O)Nc1cc2cc([N+](=O)[O-])ccc2oc1=O | 277 to 279
Cn1cc(-c2cccc(C(F)(F)F)c2)c(=O)c(-n2cncn2)c1 | 181 to 183
CCOC(=O)C(CC)Oc1cccc(N2CCN(c3ccncc3)CC2)c1 (stereo unspecified) | 160 to 162
COc1ccc([C@@H]2Sc3cc(Cl)ccc3N(CCCN3CCN(c4ccccc4)CC3)C(=O)[C@@H]2O)cc1 (relative stereo) | 70 to 71
O=C1OC(c2ccccc2)=NC1=Cc1ccc(Oc2ccccc2)cc1 | 156 to 158
CC(C)(CC(=O)Oc1ccccc1C(C)(C)C)NS(=O)(=O)C(F)(F)F | 69 to 71
CCOC(=O)c1nn(C(=O)Nc2ccccc2)c(C)c1C | 139 to 140
O=C(O)c1ccc2cc(OCCCCCCc3cccc(O)c3O)ccc2c1 | 167 to 171
CNC(=O)c1ccc(-c2ccc3nnn(Cc4ccc5ncccc5c4)c3n2)cc1F | 212 to 214
CCOc1ccc(C2=NN(Cc3ccc(C(=O)O)cc3)C(=O)[C@H]3CCCC[C@@H]23)cc1OCC (relative stereo) | 152 to 154
CCOC(=O)c1cc2c(OCc3ccccc3)cc(C)cc2[nH]1 | 167 to 168
CC(C)(C)c1ccc(Oc2ncnc3cc(-c4ncccc4C(F)(F)F)ccc23)cc1 | 162 to 163
N#Cc1cc(-c2ccoc2)c2ccc(OCc3cccc(-c4ccccc4)n3)cc2c1 | 131 to 133
O=C(/C=C/c1ccc(O)cc1)CC(=O)/C=C/c1ccccc1CO | 173 to 180
CCc1nc2c(cnn2CC)c(NC2CCOCC2)c1CNC(=O)c1cc(C)cc(C(=O)OC)c1 | 89 to 93
CCn1c(=O)c2c(N)n[nH]c2n(CC)c1=O | 246 to 248
O=C1C=C(c2cccn2Cc2ccccc2)C(=O)c2ccccc21 | 99
CCOCc1nc2c(N)nc3ccccc3c2n1CC1(O)CCN(C)CC1 | 198
N#Cc1cccc(-c2cc(-c3ccc(C#N)cc3Cl)no2)c1 | 221 to 223
CC(C)(C)C(O)c1cncnc1 (stereo unspecified) | 94 to 96
CC(=O)OCc1cc(O)c2c(c1)C(=O)c1cccc(C(C)=O)c1C2=O | 190 to 191
CCCCNC(=O)[C@@H](C[C@H](O)[C@@H](N)CC1CCCC1)C(C)C | 93 to 94

SMILES | melting point [°C]
CCOCCOC(=O)C(=O)Nc1nc(-c2cc(OC)ccc2OC)cs1 | 140 to 141
O=[N+]([O-])c1ccc(-n2nc(-c3ccccc3O)nc2-c2ccccc2O)cc1 | 180 to 183
C=CC[C@@H]1CCc2cc(OC)ccc2[C@H]1O (relative stereo) | 63 to 65
CC(=O)C(=Cc1cc(Cl)c(S(C)(=O)=O)c(Cl)c1)C(C)=O | 134 to 136
CCCCc1ccccc1NC(C)=O | 96.5 to 99.5
NC1=NCC(COc2cccc(Cl)c2)O1 (stereo unspecified) | 128
COc1cc2c(cc1C)C1(CO2)C(=O)N(CC2CCCO2)c2ccccc21 (stereo unspecified) | 151 to 153
NN=C(c1cccc(F)c1)c1cccc(F)c1 | 35 to 36
COC(=O)C1=CCC(C#N)(c2ccc(OC)c(OC3CCCC3)c2)CC1 (stereo unspecified) | 128 to 129
CCCN(CCC)Cc1ccccc1P(=NC(=O)OCC)(c1ccccc1)c1ccccc1 | 102 to 104
NC(=O)C1CCCc2c(C(=O)O)cccc21 (stereo unspecified) | 247 to 249
N#CCNC(=O)c1ccc(Cl)c(Cl)c1 | 144 to 145
Cn1c(Oc2cccc(C(F)(F)F)c2)nc2c(-c3cccc(C(=O)NCC(N)=O)c3)cccc21 | 185 to 186
COc1cc(OC)c2c(=O)[nH]c(-c3ccc4[nH]nc(CO)c4c3)nc2c1 | 264 to 266
Cn1ncnc1COc1nn2c(-c3c(F)cccc3F)nncc2c1-c1ccccc1 | 179
N=C(Nc1ccccc1CN1CCOCC1)N1CCOCC1 | 118 to 119
CCCCCCCCCCCC#Cc1ccoc1C=O | 56 to 57
Nc1ncc(-c2cc(Cl)c([N+](=O)[O-])c(Cl)c2Cl)c(N)n1 | 293 to 295
O=S(=O)(NCCc1cccnc1)c1ccc(Cl)cc1 | 143 to 145
Cc1cc(F)ccc1-c1ccc(S(=O)(=O)N2c3ccccc3CC2C(=O)NCCOc2ccc(C(=O)O)c(F)c2)cc1 (stereo unspecified) | 109 to 118
Cc1cccc(-c2cn(C)cc(-c3cccc(C)c3)c2=O)c1 | 148 to 150
CCn1cc(S(=O)(=O)NC(=O)c2cn3cc(C(F)(F)F)cc(Cl)c3n2)c(C)n1 | 189 to 190
CCOC(=O)c1cc2ccccc2nc1C | 70 to 72
